Measured values taken from paper PMC5344255, “Design, Synthesis and Biochemical Evaluation of Novel Selective Estrogen Receptor Ligand Conjugates Incorporating an Endoxifen-Combretastatin Hybrid Scaffold” (Biomedicines, 2016).
Marks after values point to notes of the source that are not given here.

Key:
K-562 = assay: NCI 60 cell line screen; type: cell-based, human; conditions: K-562 (Leukemia)
[1] = test system: MCF-7 human breast cancer cells; assay: MTT assay for antiproliferative effects in MCF-7; type: cell-based; conditions: Homo sapiens, MCF7, MCF-7, MTT assay
How it was run: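 MCF-7 grown in MEM and MDA-MB-231 in D-MEM, each with 10% FBS, at 37 °C and 5% CO2. Viability by MTT reduction to formazan by metabolically active cells, plotted against compound concentration. Three experiments in triplicate, given as mean ± SEM.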

MALME-3M = assay: NCI 60 cell line screen; type: cell-based, human; conditions: MALME-3M (Melanoma); one-dose 10 µM
MDA-MB-468 = assay: NCI 60 cell line screen; type: cell-based, human; conditions: MDA-MB-468 (Breast Cancer); one-dose 10 µM
OVCAR-4 = assay: NCI 60 cell line screen; type: cell-based, human; conditions: OVCAR-4 (Ovarian Cancer); one-dose 10 µM
NCI-H552 = assay: NCI 60 cell line screen; type: cell-based, human; conditions: NCI-H552 (Non-Small Cell Lung Cancer)
BT-549 = assay: NCI 60 cell line screen; type: cell-based, human; conditions: BT-549 (Breast Cancer); one-dose 10 µM
[2] = test system: MCF-7 human breast cancer cells; assay: Lactate dehydrogenase (LDH) cytotoxicity assay in MCF-7; type: cell-based; conditions: % cell lysis at 10 µM
How it was run: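 Cells seeded at 1 × 10^4 per well and grown 24 h, then dosed with compounds over 1 nM–50 μM. Cell lysis quantified as released cytoplasmic LDH using the CytoTox 96 nonradioactive cytotoxicity assay.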

IGROV1 = assay: NCI 60 cell line screen; type: cell-based, human; conditions: IGROV1 (Ovarian Cancer); one-dose 10 µM
SF295 = assay: NCI 60 cell line screen; type: cell-based, human; conditions: SF295 (CNS Cancer)
LOX IMV1 = assay: NCI 60 cell line screen; type: cell-based, human; conditions: LOX IMV1 (Melanoma); one-dose 10 µM
PC-3 = assay: NCI 60 cell line screen; type: cell-based, human; conditions: PC-3 (Prostate cancer)
SNB-75 = assay: NCI 60 cell line screen; type: cell-based, human; conditions: SNB-75 (CNS Cancer)
M14 = assay: NCI 60 cell line screen; type: cell-based, human; conditions: M14 (Melanoma); one-dose 10 µM
COLO 205 = assay: NCI 60 cell line screen; type: cell-based
MDA-MB-231/ATCC = assay: NCI 60 cell line screen; type: cell-based, human; conditions: MDA-MB-231/ATCC (Breast Cancer); one-dose 10 µM
NCI-H226 = assay: NCI 60 cell line screen; type: cell-based, human
UO-31 = assay: NCI 60 cell line screen; type: cell-based, human; conditions: UO-31 (Renal Cancer); one-dose 10 µM
A498 = assay: NCI 60 cell line screen; type: cell-based
SNB-19 = assay: NCI 60 cell line screen; type: cell-based, human; conditions: SNB-19 (CNS Cancer)
SR = assay: NCI 60 cell line screen; type: cell-based, human; conditions: SR (Leukemia)
SF-268 = assay: NCI 60 cell line screen; type: cell-based, human; conditions: SF-268 (CNS Cancer)
HOP-92 = assay: NCI 60 cell line screen; type: cell-based, human; conditions: HOP-92 (Non-Small Cell Lung Cancer)
786-0 = assay: NCI 60 cell line screen; type: cell-based, human; conditions: 786-0 (Renal Cancer); one-dose 10 µM
NCI/ADR-RES = assay: NCI 60 cell line screen; type: cell-based, human; conditions: NCI/ADR-RES (Ovarian Cancer); one-dose 10 µM
HCT-15 = assay: NCI 60 cell line screen; type: cell-based, human; conditions: HCT-15 (Colon Cancer)

CCC(=C(c1ccc(O)cc1)c1ccc(OCCN(C)C(=O)/C(=C/c2ccc(OC)c(O)c2)c2cc(OC)c(OC)c(OC)c2)cc1)c1ccc(O)cc1 (mixture of isomers) [Compound 28, (E)-N-(2-{4-[(E/Z)-1,2-Bis-(4-hydroxyphenyl)but-1-enyl]-phenoxy}ethyl)-3-(3-hydroxy-4-methoxyphenyl)-N-methyl-2-(3,4,5-trimethoxyphenyl)acrylamide]
GI50 (K-562; Homo sapiens, K562, five-dose screen): 2570 nM | GI% (10^−5 M) (K-562; one-dose 10 µM): 86.1% | IC50 ([1]; mean of at least three experiments in triplicate): 5 nM | IC50 ([1]; values in nM): 0.005 nM | GI% (10^−5 M) (MALME-3M): 1.76% | GI% (10^−5 M) (MDA-MB-468): 1.12% | GI% (10^−5 M) (OVCAR-4): 2.59% | GI50 (NCI-H552; Homo sapiens, 60 cell, five-dose screen): 1390 nM | GI% (10^−5 M) (NCI-H552; one-dose 10 µM): 100 ^d,h % | GI% (10^−5 M) (BT-549): 1.12% | % Cell Death at 10 μM [2]: 17% | GI% (10^−5 M) (IGROV1): 2.3% | GI50 (SF295; Homo sapiens, SF-295, five-dose screen): 1740 nM | GI% (10^−5 M) (SF295; one-dose 10 µM): 73.4% | GI% (10^−5 M) (LOX IMV1): 1.55% | GI50 (PC-3; Homo sapiens, five-dose screen): 1730 nM | GI% (10^−5 M) (PC-3; one-dose 10 µM): 86.32% | GI50 (SNB-75; Homo sapiens, five-dose screen): 5960 nM | GI% (10^−5 M) (SNB-75; one-dose 10 µM): 60.65% | GI% (10^−5 M) (M14): 1.68% | GI% (10^−5 M) (COLO 205; COLO 205 (Colon Cancer), one-dose 10 µM): 100 ^d,i % | GI50 (COLO 205; Homo sapiens, COLO 205): 2150 nM | LC50 (COLO 205; Homo sapiens, COLO 205, five-dose screen): 26200 nM | GI% (10^−5 M) (MDA-MB-231/ATCC): 1.61% | GI50 (NCI-H226; Homo sapiens, NCI-H226 (Non-Small Cell Lung Cancer), five-dose screen): 1180 nM | GI% (10^−5 M) (NCI-H226; NCI-H226 (Non-Small Cell Lung Cancer), one-dose 10 µM): 100 ^d,g % | lethality (NCI-H226; NCI-H226, one-dose screen 10 μM): 73% | GI% (10^−5 M) (UO-31): 2.66% | GI% (10^−5 M) (A498; A498 (Renal Cancer), one-dose 10 µM): 2.94% | CC50 (A498; Homo sapiens, A498, five-dose screen, read-out: LC50 (the source's name)): 32600 nM | GI50 (SNB-19; Homo sapiens, five-dose screen): 1720 nM | GI% (10^−5 M) (SNB-19; one-dose 10 µM): 81.49% | GI50 (SR; Homo sapiens, five-dose screen): 2350 nM | GI% (10^−5 M) (SR; one-dose 10 µM): 69.03% | GI50 (SF-268; Homo sapiens, five-dose screen): 1690 nM | GI% (10^−5 M) (SF-268; one-dose 10 µM): 84.22% | GI% (10^−5 M) (HOP-92; one-dose 10 µM): 86.19% | GI50 (HOP-92; Homo sapiens, five-dose screen): 764 nM | GI% (10^−5 M) (786-0): 1.91% | GI% (10^−5 M) (NCI/ADR-RES): 6.02% | GI% (10^−5 M) (HCT-15; one-dose 10 µM): 100 ^d,k % | GI50 (HCT-15; Homo sapiens, five-dose screen): 1530 nM
